Laboratory results taken from PMC11843331, “Metal-Triggered FAD Reduction in D-2-Hydroxyglutarate Dehydrogenase from Pseudomonas aeruginosa PAO1” (ACS Bio & Med Chem Au, 2024).

Biological target: T1, PaD2HGDH; Pseudomonas aeruginosa D-2-hydroxyglutarate dehydrogenase (Pseudomonas aeruginosa, UniProt Q9I6H4)
T1 construct: gene PA0317; recombinant from pET20b(+) harboring PA0317 (GenScript), purified to homogeneity; FAD- and Zn2+-containing
T1 sequence (Q9I6H4 1-464): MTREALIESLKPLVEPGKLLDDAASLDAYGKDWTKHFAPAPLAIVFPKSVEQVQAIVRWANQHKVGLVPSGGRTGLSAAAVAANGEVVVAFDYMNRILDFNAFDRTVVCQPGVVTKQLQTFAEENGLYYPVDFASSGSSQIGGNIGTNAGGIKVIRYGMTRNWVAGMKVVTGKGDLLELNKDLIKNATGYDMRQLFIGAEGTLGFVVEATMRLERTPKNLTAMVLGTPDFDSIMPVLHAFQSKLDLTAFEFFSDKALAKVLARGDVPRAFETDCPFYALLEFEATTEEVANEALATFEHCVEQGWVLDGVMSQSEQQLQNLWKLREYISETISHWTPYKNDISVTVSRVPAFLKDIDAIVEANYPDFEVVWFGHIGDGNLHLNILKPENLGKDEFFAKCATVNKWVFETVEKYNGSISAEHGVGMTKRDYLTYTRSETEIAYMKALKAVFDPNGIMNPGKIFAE
Test: UV-visible absorption of enzyme-bound flavin, anaerobic reduction by D-malate
Assay type: binding
Details: 1 mM ZnCl2, pH 10.0, 25 °C; co-purified bound cofactor

## Cc1cc2nc3c(=O)[nH]c(=O)nc-3n(C[C@H](O)[C@H](O)[C@H](O)COP(=O)(O)OP(=O)(O)OC[C@H]3O[C@@H](n4cnc5c(N)ncnc54)[C@H](O)[C@@H]3O)c2cc1C [FAD]
  UV-visible absorption of enzyme-bound flavin, anaerobic reduction by D-malate: characteristic properties of a fully reduced PaD2HGDH-bound flavin, as previously reported
